In patent US5177106A, “4-amino substituted phenoxyalkyl carboxylic acid, ester, and alcohol derivatives as antihypercholesterolemic and antiatherosclerotic agents” (Warner-Lambert Company, priority 1991, dated 1993):

Experiments:
[1] = biological target: T1, acyl-CoA:cholesterol acyltransferase (ACAT) (Oryctolagus cuniculus, UniProt G1SFD9); assay: Inhibition of cholesterol esterification by acyl-CoA:cholesterol acyltransferase (ACAT), in vitro, rabbit intestinal microsomal fraction; type: biochemical; conditions: endogenous cholesterol and exogenous 14C-oleoyl-CoA, read-out: IC50 (concentration of test compound required to inhibit cholesteryl oleate formation to 50% of control)
T1 construct: rabbit intestinal microsomal fraction; from tissue; host or cells: rabbit intestine, microsomal fraction
T1 sequence (G1SFD9 1-524): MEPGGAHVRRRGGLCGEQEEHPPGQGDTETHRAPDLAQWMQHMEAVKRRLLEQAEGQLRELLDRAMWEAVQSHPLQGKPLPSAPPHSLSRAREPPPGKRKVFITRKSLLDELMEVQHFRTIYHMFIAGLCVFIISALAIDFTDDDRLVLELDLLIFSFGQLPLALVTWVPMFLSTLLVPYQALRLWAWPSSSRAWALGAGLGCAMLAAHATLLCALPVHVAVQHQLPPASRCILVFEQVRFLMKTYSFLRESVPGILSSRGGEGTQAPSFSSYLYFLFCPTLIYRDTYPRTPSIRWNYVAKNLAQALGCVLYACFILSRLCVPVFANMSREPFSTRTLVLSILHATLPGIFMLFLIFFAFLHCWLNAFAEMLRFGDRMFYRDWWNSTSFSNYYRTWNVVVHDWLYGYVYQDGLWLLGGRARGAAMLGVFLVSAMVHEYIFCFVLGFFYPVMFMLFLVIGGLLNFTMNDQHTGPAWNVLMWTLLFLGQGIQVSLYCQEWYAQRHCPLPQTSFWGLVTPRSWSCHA
Method: The compounds of the present invention were tested for their ability to inhibit the esterification of cholesterol by the enzyme acyl-CoA:cholesterol acyltransferase (ACAT). The data in the table below is expressed as IC50 values, i.e., the concentration of test compound required to inhibit cholesteryl oleate formation to 50% of control.
The in vitro test employed is more fully described in Field, F. J. and Salome, R. G., Biochemica et Biophysica Acta, Volume 712, pages 557-570 (1982). The assay evaluates the ability of a test compound to inhibit the esterification of cholesterol using endogenous cholesterol of a rabbit intestinal microsomal fraction and exogenous ^14 C-oleoyl-CoA as reactants.

[2] = Elevation of HDL by test drug relative to gemfibrozil (test procedure of U.S. Pat. No. 4,413,011); type: in vivo; conditions: ratio; 50 mg/kg test drug vs 50 mg/kg gemfibrozil; 1 = as effective as gemfibrozil
Method: Additionally, the elevation of HDL is reported in the table as a ratio of the elevation of HDL effected by a dose of 50 mg/kg of the test drug divided by the elevation of HDL effected by a 50 mg/kg dose of gemfibrozil which is used as a control in each experiment. [formula] Thus, a figure of 1 means that the test drug was as effective as gemfibrozil in elevating HDL. […] The test procedure is described in U.S. Pat. No. 4,413,011, which is herein incorporated by reference.

[3] = patients with elevated cholesterol levels; 5-year trial; cited from earlier work

CCCCCCCCCCCCCCCCS(=O)(=O)Nc1cc(C)c(OCCCC(C)(C)C(=O)OC)cc1C [Example 5, 5-[4-[(Hexadecylsulfonyl)amino]-2,5-dimethylphenoxy]-2,2-dimethylpentanoic acid, methyl ester]
IC50 [1]: 74 µM | Δ HDL Test Compound / Δ HDL Gemfibrozil [2]: 0.8

COC(=O)C(C)(C)CCCOc1cc(C)c(NS(C)(=O)=O)cc1C [Example 12]
IC50 [1]: 69 µM | Δ HDL Test Compound / Δ HDL Gemfibrozil [2]: 1.5

Cc1ccc(C)c(OCCCC(C)(C)C(=O)O)c1 [gemfibrozil]
reduction of the rate of heart attack and sudden cardiac death [3]: 34%

COC(=O)C(C)(C)CCCOc1cc(C)c(NC(=S)Nc2ccccc2)cc1C [Example 16, 5-[2,5-Dimethyl-4-[[(phenylamino)-thioxomethyl]amino]phenoxy]-2,2-dimethylpentanoic acid, methyl ester]
IC50 [1]: 28 µM | Δ HDL Test Compound / Δ HDL Gemfibrozil [2]: 0.9
